Data from patent publication US12257290B2, “PIC1 inhibition of myeloperoxidase oxidative activity in an animal model” (priority 2018, dated 2025).
Ends that are not written are not given here.

Legend:
[1] = tested on: Human neutrophil MPO; assay: Purified MPO inflammatory peritonitis model (peritoneal wash TMB peroxidase activity, PicoGreen free DNA); type: in vivo, Wistar rats; settings: for MPO activity in peritoneal wash: P<0.019
Procedure: Human neutrophil MPO (Lee Biosolutions) was diluted in sterile saline to the respective doses necessary for each experiment. PIC1 in the form of PA-dPEG24 (PolyPeptide Group) was solubilized and diluted in 0.5 M Histidine buffer, adjusted to pH 6.5, and then diluted to each of the respective doses used for each experiment.
Wistar rats were sedated and injected IP with purified MPO in experiments that were conducted under an Eastern Virginia Medical School IRB approved protocol (#17-008). 16-week-old male Wistar rats were used in these experiments weighing approximately 200 g. The rats received sedation with ketamine and acepromazine prior to all procedures. They then received a 1 ml IP injection with MPO in saline. After the time interval indicated, a tail vein phlebotomy was performed to obtain 250 mcl of blood in a K2EDTA Microtainer (BD). The animals were then euthanized with FatalPlus IV. A peritoneal wash with 20 ml of ice cold PBS was then performed by […] followed by massage and extraction from a small hole in the peritoneum with a blunt needle and syringe.
Cells were sedimented and supernatants were tested for MPO peroxidation of TMB, with sample processing performed as follows. Peritoneal wash fluid was centrifuged at 1500×g for 5 minutes to sediment cells and other debris. The resulting peritoneal wash fluid supernatant was aliquoted and frozen for further analysis. The cell pellet was resuspended to the original volume with saline and cells were counted on a hemocytometer. Plasma was collected after centrifugation of the lavender top blood collection tubes.
The MPO activity assay was performed as follows. Peritoneal fluid, along with pure MPO for a standard curve, was serially titrated in 0.1 ml in a 96 well plate followed by the addition of 0.1 ml of 3,3′,5,5′-tetramethylbenzidine (TMB) (Fisher). After one minute, 0.1 ml of 2.5 M H2SO4 was added to stop the reaction and the plate was read at 450 nm. Using linear regression from the standard curve, the MPO activity was calculated for each sample.
In the peritoneal wash fluid supernatants, free DNA was measured as a marker of NETosis via the PicoGreen assay. Peritoneal fluid or plasma, along with DNA (Invitrogen) for a standard curve, was serially titrated in 0.1 ml in a 96 well plate and used in the Quant-iT PicoGreen (Fisher) assay. The PicoGreen solution was diluted as directed by the kit instructions and added to samples, which were incubated in the dark for 10 minutes and then read on a fluorescent microplate reader at excitation 480 nm/emission 520 nm). Using linear regression from the standard curve, the DNA concentration was quantitated for each sample.
The effect of PIC1, in particular PA-dPEG24, on the inhibition of MPO and NETosis in MPO-mediated peritonitis was then assayed. A series of increasing doses of PA-dPEG24 (1 mg, 5 mg, and 20 mg) were injected IP immediately, i.e., one minute after purified MPO was inoculated, into the peritoneum followed 2 hours later by phlebotomy, euthanasia and peritoneal wash. A control was used where no PA-dPEG24 was administered. An MPO activity assay and a free DNA assay according to the methods discussed above were conducted for each of 0 mg, 1 mg, 5 mg, and 20 mg PA-dPEG24 doses.

[2] = tested on: classical complement pathway; settings: administered intravascularly into rats; by 30 seconds; cited from earlier work

IALILEPICCQERAA-dPEG24 (cysteine pairing not given here) [PA-dPEG24, 15-amino acid PEGylated peptide, 24 PEG moieties at the C-terminus]
MPO activity in peritoneal wash ([1]; 1 mg (5 mg/kg) IP, 2 h): Statistically significant decreases | MPO activity in peritoneal wash ([1]; 5 mg (25 mg/kg) IP, 2 h): Statistically significant decreases | free DNA in the peritoneal fluid (PicoGreen) ([1]; 20 mg (100 mg/kg) IP, 2 h, P=0.11): trend towards decreased free DNA | decrease in peroxidase activity by TMB in peritoneal wash ([1]; 20 mg (100 mg/kg) IP, 2 h, vs no PA-dPEG24, P=0.015): 5 fold | free DNA in blood plasma (PicoGreen) ([1]; highest dose, P=0.22 vs no PIC1): lowest with the highest dose | systemic inhibition of complement activation [2]: > 90%
